One compound from article PMC11401813, “Grewiifopenes A–K, bioactive clerodane diterpenoids from Casearia grewiifolia Vent” (Natural Products and Bioprospecting, 2024) can be followed below.

Broadly, the IC50 is the concentration needed to halve the response being measured. By inhibition is commonly meant how much of the control response was suppressed. As usually defined, the MBC is the smallest concentration meeting the test's criterion for killing. For orientation: MIC means the lowest concentration found to suppress growth. A lower MIC goes with a more susceptible organism.

The subject of data set [1] is MDA-MB-231 (triple negative breast cancer). Description: Cytotoxicity, MTT assay, MDA-MB-231. The format is cell-based, human. Particulars: MDA-MB-231 cell line; MTT; mean ± s.d. (n = 3). As to the method: (§1) The in vitro cytotoxicity assay toward a panel of human cancer cell lines of several clerodane diterpenoids has been well investigated. Thus, the isolates in adequate amounts were tested against MOLT-3 (acute lymphoblastic leukemia), HuCCA-1 (cholangiocarcinoma), HepG2 (hepatocellular carcinoma), A549 (lung adenocarcinoma), HeLa (cervical carcinoma), and MDA-MB-231 (triple negative breast cancer) cancer cell lines using the MTT and XTT methods. Doxorubicin and etoposide were used as positive controls.
(§2) The MTT (3-(4,5-dimethylthiazol-2-yl)-2,5-diphenyltetrazolium bromide) assay was employed for the cytotoxic evaluation against five human cancer cell lines, including HepG2, A549, MDA-MB-231, HeLa, and HuCCA-1, while the XTT (2,3-bis-(2-methoxy-4-nitro-5-sulphenyl)-(2H)-tetrazolium-5-carboxanilide) method was used for MOLT-3 cancer cell.
On the technique in general: Formazan colour is commonly taken as a measure of viable cells.

Data set [2] relates to MOLT-3, HuCCA-1, HepG2, A549, HeLa, and MDA-MB-231 cancer cell lines. Description: Cytotoxicity toward panel of human cancer cell lines (MTT and XTT). The format is cell-based. Particulars: even at 50 µg/mL. From the text:
The in vitro cytotoxicity assay toward a panel of human cancer cell lines of several clerodane diterpenoids has been well investigated. […] Doxorubicin and etoposide were used as positive controls.

For data set [3], the system named is MOLT-3 (acute lymphoblastic leukemia). Description: Cytotoxicity, XTT method, MOLT-3. Particulars: Homo sapiens; MOLT-3 cell line; XTT; mean ± s.d. (n = 3); read-out: IC50, MOLT-3. The format is cell-based. As to the method:
as §1, §2

For data set [4], the system named is HuCCA-1 (cholangiocarcinoma). The data set can be described thus: Cytotoxicity, MTT assay, HuCCA-1. It counts as cell-based, human. Particulars: HuCCA-1 cell line; MTT; mean ± s.d. (n = 3). As for the experimental part:
as §1, §2

For data set [5], the system named is HeLa (cervical carcinoma). The data set can be described thus: Cytotoxicity, MTT assay, HeLa. The format is cell-based, human. To be noted: HeLa cell line; MTT; mean ± s.d. (n = 3). As for the experimental part: as §1, §2
Another data set has as its target T1, aromatase (CYP19) (Homo sapiens, UniProt P11511).
T1 construct: purchased
T1 sequence (P11511 1-503): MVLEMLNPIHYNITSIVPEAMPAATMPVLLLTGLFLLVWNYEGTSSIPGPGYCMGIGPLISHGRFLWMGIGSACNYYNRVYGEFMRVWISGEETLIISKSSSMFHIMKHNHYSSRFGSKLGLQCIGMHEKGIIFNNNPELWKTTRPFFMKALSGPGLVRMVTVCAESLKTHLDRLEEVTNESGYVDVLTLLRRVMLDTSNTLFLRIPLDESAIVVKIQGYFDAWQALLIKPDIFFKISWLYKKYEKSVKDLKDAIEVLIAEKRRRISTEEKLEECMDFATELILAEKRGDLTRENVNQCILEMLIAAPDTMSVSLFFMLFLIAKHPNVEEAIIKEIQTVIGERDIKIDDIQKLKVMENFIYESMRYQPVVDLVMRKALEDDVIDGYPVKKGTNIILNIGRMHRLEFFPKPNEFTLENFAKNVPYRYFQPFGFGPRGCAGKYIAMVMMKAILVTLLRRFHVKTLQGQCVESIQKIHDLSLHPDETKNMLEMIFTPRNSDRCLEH
Description: Aromatase (CYP19) inhibition assay. The format is biochemical. As to the method: (§3) In addition, the isolates were also evaluated for their antibacterial activity towards three strains including Bacillus cereus (ATCC 11778), Staphylococcus aureus (ATCC 6538) and Staphylococcus epidermidis (ATCC 12228) using penicillin G and gentamicin as the antibiotic controls (Table 5). […] Finally, the inhibitory activity of aromatase by using a CYP19 screening kit was investigated. The aromatase (also called estrogen synthase) is responsible for converting the non-aromatic ring A of androgens to estrogens, which are related to the proliferation of breast cancer cells.
The aromatase assay used a method previously designed by Stresser and co-workers.

The subject of data set [6] is Staphylococcus epidermidis (ATCC 12228). The data set can be described thus: Antibacterial broth microdilution (MIC/MBC), S. epidermidis. The format is cell-based. Particulars: ATCC12228. As for the experimental part:
as §3
(§4) The tested strains, Staphylococcus aureus (S. aureus) ATCC6538, Staphylococcus epidermidis (S. epidermidis) ATCC12228, and Bacillus cereus (B. cereus) ATCC11778 were obtained from the American Type Culture Collection (ATCC).
(§5) All tested species were grown on Mueller Hinton Agar (MHA) and incubated at 37 °C for 18–24 h. The bacterial colonies suspension in sterile normal saline was diluted until they reached a 1 × 10^6 CFC/mL concentration, which was then compared to the McFarland scale. This step provided a standard bacterial suspension (1 × 10^6 CFU/mL), which was used for the following assays.
(§6) The broth microdilution technique was used for the MIC and MBC determination, which was expressed according to Clinical and Laboratory Standards Institute (CLSI) standard M07 guideline. The compounds were prepared as a stock solution by dissolving in dimethyl sulfoxide (DMSO) with the concentration ranging from 0.195 to 200 µg/mL. DMSO and penicillin G or gentamicin were used as normal and standard drug control. […] Three replicates were performed for each experiment.
In general terms: Broth dilution looks for growth in wells or tubes with falling amounts of substance.

For data set [7], the system named is Bacillus cereus (ATCC 11778). Description: Antibacterial broth microdilution (MIC/MBC), B. cereus. It counts as cell-based. Particulars: Bacillus cereus, ATCC11778. As to the method:
as §3, §4, §5, §6

Data set [8] concerns A549 (lung adenocarcinoma). Description: Cytotoxicity, MTT assay, A549. The format is cell-based, human. To be noted: A549 cell line, mean ± s.d. (n = 3). As to the method: as §1, §2
Data set [9] relates to Staphylococcus aureus (ATCC 6538). Description: Antibacterial broth microdilution (MIC/MBC), S. aureus. Particulars: ATCC6538. The format is cell-based. As to the method:
as §3, §4, §5, §6

Data set [10] has as its system HepG2 (hepatocellular carcinoma). Description: Cytotoxicity, MTT assay, HepG2. The format is cell-based, human. Particulars: HepG2 cell line; MTT; mean ± s.d. (n = 3). As for the experimental part: as §1, §2

In the case of `COc1cc([C@@H]2OC[C@@H]3[C@H]2CO[C@H]3c2cc(OC)c(O)c(OC)c2)cc(OC)c1O` [Compound 19, (−)-syringaresinol], the “IC50, MDA-MB-231” value in data set [1] is “I (Inactive for cytotoxicity with < 50% inhibition at a concentration of 50 µg/mL)”. Besides, in data set [2], the “Cytotoxicity against all cell lines (in words)” value was “inactive”. For the same compound, the IC50 in [3] is 75.3 ± 4.9 µM. Further, in data set [4], the “IC50, HuCCA-1” value is “I (Inactive for cytotoxicity with < 50% inhibition at a concentration of 50 µg/mL)”. Moreover, in [5], the “IC50, HeLa” value is “I (Inactive for cytotoxicity with < 50% inhibition at a concentration of 50 µg/mL)”. On aromatase (CYP19) (at a concentration of 12.5 µM), this compound yielded an inhibition at 12.5 µM of 17%. Also, the “Aromatase inhibitory activity (in words)” value on aromatase (CYP19) (at the concentration up to 12.15 µM) was “did not show activity”. The minimum bactericidal concentration (MBC) in data set [6], in data set [7] and in data set [9] was over 200 µg/mL each time. For the same compound, the MIC in [6], in data set [7] and in [9] was over 200 µg/mL each time. The “IC50, A549” value in data set [8] is given as “I (Inactive for cytotoxicity with < 50% inhibition at a concentration of 50 µg/mL)”. Besides, the “IC50, HepG2” value in data set [10] is on record as “I (Inactive for cytotoxicity with < 50% inhibition at a concentration of 50 µg/mL)”.
